# Assay results from patent publication US20230008368A1, “IMIDAZOQUINOLINE SUBSTITUTED PHOSPHORIC ESTER AGONIST, AND PREPARATION THEREFOR AND APPLICATION THEREOF” (SUZHOU ZELGEN BIOPHARMACEUTICALS CO., LTD., priority 2019, published 2023).
# Read-outs that look alike come from different tables or passages of the source.
# Assays:
# [1] = cytotoxicity, cell viability by CellTiter-Glo; format: cell-based, human; conditions: human, HEK-Blue hTLR cells, cultured 1 day
# Protocol: (§1) The compound was diluted with 1:3 series with DMSO for 9 concentration points, duplicated wells, and added to 96-well plate with Echo.
# (§2) The HEK-Blue™ hTLR cells were suspended in the culture medium and then seeded into a 96-well plate containing the compound at a density of 50,000 cells/well. Cells were cultured at 5% CO2 and 37° C. for 1 day. The final concentration of DMSO in the cell culture medium was 0.5%.
# According to the CellTiter-Glo instructions, the cell viability was measured, and the Luminescence signal value was read by the microplate reader, which was used to calculate the cytotoxicity of the compound.
# (§3) The EC50 and CC50 values of the compound were calculated by GraphPad Prism software, and the fitting curve was plotted.
# [2] = target: T1, hTLR7 (Homo sapiens, UniProt Q9NYK1); test: agonistic activity on hTLR7, HEK-Blue hTLR cells, SEAP reporter (QUANTI-Blue); format: cell-based; conditions: for TLR 7 selectivity TLR 8/TLR 7: ratio of TLR 8 EC50 to TLR 7 EC50
# T1 construct: expressed in transfected cells; host or cells: HEK-Blue hTLR cells
# T1 sequence (Q9NYK1 27-1049): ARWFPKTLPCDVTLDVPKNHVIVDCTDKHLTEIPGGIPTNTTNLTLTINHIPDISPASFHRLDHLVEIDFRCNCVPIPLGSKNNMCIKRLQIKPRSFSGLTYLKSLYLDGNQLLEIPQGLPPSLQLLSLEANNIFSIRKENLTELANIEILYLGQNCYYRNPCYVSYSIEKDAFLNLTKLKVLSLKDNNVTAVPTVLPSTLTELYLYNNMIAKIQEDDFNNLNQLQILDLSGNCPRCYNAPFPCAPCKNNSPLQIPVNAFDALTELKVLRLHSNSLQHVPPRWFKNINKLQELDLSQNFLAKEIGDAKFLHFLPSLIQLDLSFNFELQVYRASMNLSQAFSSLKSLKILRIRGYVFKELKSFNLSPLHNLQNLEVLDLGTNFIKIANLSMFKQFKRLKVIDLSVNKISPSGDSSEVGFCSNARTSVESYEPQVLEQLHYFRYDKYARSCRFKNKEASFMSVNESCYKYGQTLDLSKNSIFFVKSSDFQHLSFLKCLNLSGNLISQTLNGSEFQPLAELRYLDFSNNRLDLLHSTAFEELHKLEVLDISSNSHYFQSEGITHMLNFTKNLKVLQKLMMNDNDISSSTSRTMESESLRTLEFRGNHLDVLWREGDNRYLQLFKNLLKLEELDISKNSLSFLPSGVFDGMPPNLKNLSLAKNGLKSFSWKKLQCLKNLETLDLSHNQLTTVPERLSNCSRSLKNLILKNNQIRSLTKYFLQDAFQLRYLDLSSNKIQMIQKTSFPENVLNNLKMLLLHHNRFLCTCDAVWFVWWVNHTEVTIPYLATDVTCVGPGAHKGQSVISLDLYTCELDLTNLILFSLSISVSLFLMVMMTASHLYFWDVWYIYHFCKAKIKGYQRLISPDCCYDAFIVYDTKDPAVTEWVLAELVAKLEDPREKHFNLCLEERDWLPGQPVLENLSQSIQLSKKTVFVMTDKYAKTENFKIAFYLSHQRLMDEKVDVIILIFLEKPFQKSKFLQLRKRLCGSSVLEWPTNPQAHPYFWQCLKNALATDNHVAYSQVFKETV
# Protocol: (§4) Experiments on the agonistic activity of TLR7 and TLR8 by the compounds in vitro
# as §1, §2
# (§5) 20 uL cell culture supernatant was taken, according to the QUANTI-Blue instructions, the reporter gene SEAP in the supernatant was detected, and the OD650 signal value was read with a microplate reader to calculate the agonist activity of the compound on the hTLR7 and hTLR8.
# as §3
# [3] = target: T2, hTLR8 (Homo sapiens, UniProt Q9NR97); test: agonistic activity on hTLR8, HEK-Blue hTLR cells, SEAP reporter (QUANTI-Blue); format: cell-based; conditions: for EC50: SEAP reporter, OD650, cultured 1 day; for TLR 8 selectivity TLR 7/TLR 8: ratio of TLR 7 EC50 to TLR 8 EC50
# T2 construct: expressed in transfected cells; host or cells: HEK-Blue hTLR cells
# T2 sequence (Q9NR97 27-1041): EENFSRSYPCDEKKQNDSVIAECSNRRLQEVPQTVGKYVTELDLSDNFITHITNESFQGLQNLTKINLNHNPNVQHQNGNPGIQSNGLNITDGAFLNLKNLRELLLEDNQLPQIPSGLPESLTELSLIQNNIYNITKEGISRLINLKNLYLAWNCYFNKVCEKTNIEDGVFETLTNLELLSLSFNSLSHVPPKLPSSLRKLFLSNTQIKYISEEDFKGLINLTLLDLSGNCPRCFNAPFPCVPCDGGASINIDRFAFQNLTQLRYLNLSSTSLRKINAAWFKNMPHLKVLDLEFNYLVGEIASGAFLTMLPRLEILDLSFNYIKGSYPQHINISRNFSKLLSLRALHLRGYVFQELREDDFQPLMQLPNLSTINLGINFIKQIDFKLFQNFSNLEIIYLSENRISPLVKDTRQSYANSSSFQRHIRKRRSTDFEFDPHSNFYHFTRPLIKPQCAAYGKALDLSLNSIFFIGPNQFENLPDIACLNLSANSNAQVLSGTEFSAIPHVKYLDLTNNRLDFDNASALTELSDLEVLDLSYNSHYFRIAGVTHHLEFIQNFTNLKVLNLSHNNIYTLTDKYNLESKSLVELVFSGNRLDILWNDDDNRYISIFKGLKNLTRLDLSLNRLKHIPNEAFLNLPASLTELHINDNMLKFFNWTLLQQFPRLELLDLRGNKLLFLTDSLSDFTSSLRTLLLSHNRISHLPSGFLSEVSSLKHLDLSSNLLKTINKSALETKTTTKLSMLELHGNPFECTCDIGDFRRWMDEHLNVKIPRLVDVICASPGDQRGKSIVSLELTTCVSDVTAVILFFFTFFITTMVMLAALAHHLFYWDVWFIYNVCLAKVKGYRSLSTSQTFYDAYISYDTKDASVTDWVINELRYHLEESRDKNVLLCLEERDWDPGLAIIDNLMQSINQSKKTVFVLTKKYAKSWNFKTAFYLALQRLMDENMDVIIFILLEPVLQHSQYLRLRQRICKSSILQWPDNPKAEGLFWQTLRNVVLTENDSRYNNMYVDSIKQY
# Protocol: as §4, §1, §2, §5, §3
# [4] = HEK-Blue hTLR cells, SEAP reporter, OD650, cultured 1 day, read-out: TLR 7 EC50
# [5] = HEK-Blue hTLR cells, read-out: TLR 8 EC50
# [6] = TLR 8 EC50, HEK-Blue hTLR cells
Structure (SMILES),CC50 at 1 day [1],"EC50 [2, 4]",TLR 7 selectivity TLR 8/TLR 7 [2],"EC50 [3, 5]",TLR 8 selectivity TLR 7/TLR 8 [3],EC50 [2],"EC50 [3, 6]"
"CCOCc1nc2c(N)nc3ccccc3c2n1C[C@@H](C)O (single isomer, unassigned) [Example 1B]",> 30 µM,1.27 µM,2.8,3.6 µM,,,
"CCOCc1nc2c(N)nc3ccccc3c2n1C[C@@H](C)O[P@@](=O)(N[C@@H](C)C(=O)OC(C)C)Oc1cccc(Cl)c1 (single isomer, unassigned) [Example 11A]",> 30 µM,5.83 µM,,0.0091 µM,640,,
"CCOCc1nc2c(N)nc3ccccc3c2n1C[C@@H](C)O[P@](=O)(N[C@@H](C)C(=O)OC(C)C)Oc1ccccc1 (single isomer, unassigned) [Example 3A]",> 30 µM,> 30 µM,,9.08 µM,>3.3,,
"CCOCc1nc2c(N)nc3ccccc3c2n1C[C@@H](C)O[P@@](=O)(N[C@@H](C)C(=O)OC(C)C)Oc1ccccc1 (single isomer, unassigned) [Example 2A]",> 30 µM,,,,3.2,2.8 µM,0.881 µM
"CCOCc1nc2c(N)nc3ccccc3c2n1C[C@@H](C)O[P@@](=O)(N[C@@H](C)C(=O)OC(C)C)Oc1cccc2ccccc12 (single isomer, unassigned) [Example 5A]",17.9 µM,> 10 µM,,0.0092 µM,>1086,,
"CCOCc1nc2c(N)nc3ccccc3c2n1C[C@@H](C)O[P@@](=O)(N[C@@H](C)C(=O)OC(C)C)Oc1ccc(C)cc1 (single isomer, unassigned) [Example 9A]",> 30 µM,9.5 µM,,0.0079 µM,1202,,
"CCOCc1nc2c(N)nc3ccccc3c2n1C[C@@H](C)O[P@@](=O)(N[C@@H](C)C(=O)OC(C)(C)C)Oc1ccc(C)cc1 (single isomer, unassigned) [Example 17A]",> 30 µM,> 30 µM,,0.133 µM,>226,,
"CCOCc1nc2c(N)nc3ccccc3c2n1C[C@H](C)O[P@](=O)(N[C@@H](C)C(=O)OC(C)C)Oc1ccccc1 (single isomer, unassigned) [Example 3B]",> 30 µM,3.61 µM,,1.86 µM,1.9,,
"CCOCc1nc2c(N)nc3ccccc3c2n1C[C@@H](C)O[P@@](=O)(N[C@@H](C)C(=O)OC(C)(C)C)Oc1ccc(Cl)cc1 (single isomer, unassigned) [Example 19A]",> 30 µM,> 30 µM,,0.0585 µM,>513,,
"CCOCc1nc2c(N)nc3ccccc3c2n1C[C@@H](C)O[P@@](=O)(N[C@@H](C)C(=O)OC(C)(C)C)Oc1ccccc1 (single isomer, unassigned) [Example 14A]",> 30 µM,15.8 µM,,0.366 µM,43,,
"CCOCc1nc2c(N)nc3ccccc3c2n1C[C@H](C)O[P@@](=O)(N[C@@H](C)C(=O)OC(C)C)Oc1ccccc1 (single isomer, unassigned) [Example 2B]",> 30 µM,,,,39.4,3.03 µM,0.077 µM
"CCOCc1nc2c(N)nc3ccccc3c2n1C[C@@H](C)O[P@@](=O)(N[C@@H](C)C(=O)OCc1ccccc1)Oc1ccccc1 (single isomer, unassigned) [Example 16A]",> 30 µM,5.83 µM,,0.0354 µM,165,,
CCOCc1nc2c(N)nc3ccccc3c2n1CC(C)O (centres unmarked) [Example 1],> 30 µM,0.666 µM,2.4,1.59 µM,,,
"CCOCc1nc2c(N)nc3ccccc3c2n1C[C@@H](C)O[P@@](=O)(N[C@@H](C)C(=O)OC(C)(C)C)Oc1ccc(OC)cc1 (single isomer, unassigned) [Example 18A]",> 30 µM,> 30 µM,,0.203 µM,>148,,
CCOCc1nc2c(N)nc3ccccc3c2n1C[C@H](C)O [Example 1A],> 30 µM,0.44 µM,2.5,1.08 µM,,,
"CCOCc1nc2c(N)nc3ccccc3c2n1C[C@@H](C)O[P@@](=O)(N[C@@H](C)C(=O)OC(C)C)Oc1ccc2ccccc2c1 (single isomer, unassigned) [Example 6A]",> 30 µM,7.29 µM,,0.0056 µM,1301,,
"CCOCc1nc2c(N)nc3ccccc3c2n1C[C@@H](C)O[P@@](=O)(N[C@@H](C)C(=O)OC(C)C)Oc1ccc(Cl)cc1 (single isomer, unassigned) [Example 12A]",> 30 µM,6.07 µM,,0.0035 µM,1735,,
